From patent US11766409B2, “Core-shell polymer nanoparticle” (THE UNIVERSITY OF QUEENSLAND, priority 2018, dated 2023)

Test system: tumor-bearing mice
Assay: In vivo anti-tumor therapeutic effect in tumor-bearing mice
Details: day 25 compared to day 0 post-injection; intravenous, every 72 hours, 5 injections
Method: In vivo mice experiments were conducted to evaluate the anti-tumor therapeutic effects of PTX-loaded high (55K/SH-PTX; 39.6% drug loading) and low-drug loading formulations (55K/SH-PTX; 3.5% drug loading) in tumor-bearing mice. Four formulations (PBS, Free PTX, High DL NP, and Low DL NP_where DL is drug loading and NP is core-shell polymer nanoparticle) were injected intravenously every 72 hours for 5 injections in total. The body weight and tumor volume of the mice were monitored every two days. […] The weight increase was higher than the Low DL NP group (4.4% increase) and Free PTX group (2.9% increase).

CC(=O)O[C@H]1C(=O)[C@@]2(C)[C@H]([C@H](OC(=O)c3ccccc3)[C@]3(O)C[C@H](OC(=O)[C@H](O)[C@@H](NC(=O)c4ccccc4)c4ccccc4)C(C)=C1C3(C)C)[C@]1(OC(C)=O)CO[C@@H]1C[C@@H]2O [Free PTX, paclitaxel]
body weight increase: 2.9%
